Results from ChEMBL document CHEMBL1269000, “Synthesis and biological evaluation of [D-lysine]8cyclosporin A analogs as potential anti-HCV agents” (Bioorg Med Chem Lett, 2010).

Experiments:
[1] = Cytotoxicity against human HuH7 cells assessed as release of lactate dehydrogenase; assay type: cell-based, Huh-7; details: for IC50: Homo sapiens, Huh-7; for IC90: human, HuH7 cells
[2] = tested on: Jurkat; assay: Immunosuppressive activity against human Jurkat cells assessed as inhibition of phytohemagglutinin-M/phorbol myristate acetate-induced IL2 production; assay type: cell-based
[3] = molecular target: Peptidyl-prolyl cis-trans isomerase B (Homo sapiens, UniProt P23284); assay: Binding affinity to cyclophilin B by ELISA
[4] = molecular target: Peptidyl-prolyl cis-trans isomerase A (Homo sapiens, UniProt P62937); assay: Binding affinity to cyclophilin A by ELISA
[5] = tested on: Hepatitis C virus; assay: Antiviral activity against HCV after 72 hrs by stable luciferase reporter gene assay; assay type: functional, organism-based, Hepacivirus hominis

Peptidyl-prolyl cis-trans isomerase A, sequence (P62937 whole entry): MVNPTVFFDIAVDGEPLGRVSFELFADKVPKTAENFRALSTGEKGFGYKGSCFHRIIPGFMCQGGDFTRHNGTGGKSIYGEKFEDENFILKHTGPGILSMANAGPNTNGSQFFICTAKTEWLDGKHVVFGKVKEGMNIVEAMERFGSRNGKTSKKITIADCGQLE
Peptidyl-prolyl cis-trans isomerase B, sequence (P23284 whole entry): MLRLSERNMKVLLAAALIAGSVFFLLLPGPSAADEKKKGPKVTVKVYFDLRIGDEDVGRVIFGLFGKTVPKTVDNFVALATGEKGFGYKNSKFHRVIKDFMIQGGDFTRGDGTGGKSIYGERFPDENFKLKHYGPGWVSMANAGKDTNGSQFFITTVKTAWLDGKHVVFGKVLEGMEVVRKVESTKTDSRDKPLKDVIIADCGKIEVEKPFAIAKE

Compound	EC50 [2] [µM]	IC50 [3] [µM]	IC50 [4] [µM]	EC50 [5] [µM]	EC90 [5] [µM]	IC50 [1] [µM]	IC90 [1] [µM]
C/C=C/C[C@@H](C)[C@@H](O)[C@H]1C(=O)N[C@@H](CC)C(=O)N(C)CC(=O)N(C)[C@@H](CC(C)C)C(=O)N[C@@H](C(C)C)C(=O)N(C)[C@@H](CC(C)C)C(=O)N[C@@H](C)C(=O)N[C@H](CCCCN(CC)CC)C(=O)N(C)[C@@H](CC(C)C)C(=O)N(C)[C@@H](CC(C)C)C(=O)N(C)[C@@H](C(C)C)C(=O)N1C	2.17	0.0198	0.0266	0.18	0.53	2.24	7.9
C/C=C/C[C@@H](C)[C@@H](O)[C@H]1C(=O)N[C@@H](CC)C(=O)N(C)CC(=O)N(C)[C@@H](CC(C)C)C(=O)N[C@@H](C(C)C)C(=O)N(C)[C@@H](CC(C)C)C(=O)N[C@@H](C)C(=O)N[C@H](CCCNC(=O)C(C)(C)C)C(=O)N(C)[C@@H](CC(C)C)C(=O)N(C)[C@@H](CC(C)C)C(=O)N(C)[C@@H](C(C)C)C(=O)N1C	0.021	0.0305	0.0267	0.12	0.31	2.07	> 10
C/C=C/C[C@@H](C)[C@@H](O)[C@H]1C(=O)N[C@@H](CC)C(=O)N(C)CC(=O)N(C)[C@@H](CC(C)C)C(=O)N[C@@H](C(C)C)C(=O)N(C)[C@@H](CC(C)C)C(=O)N[C@@H](C)C(=O)N[C@H](CCCCN(C)C)C(=O)N(C)[C@@H](CC(C)C)C(=O)N(C)[C@@H](CC(C)C)C(=O)N(C)[C@@H](C(C)C)C(=O)N1C	0.332	0.0971	0.014	0.14	0.3	2.81	> 10

Further molecules by falling EC50 [2], results first:

EC50 [2] [µM]	IC50 [3] [µM]	IC50 [4] [µM]	EC50 [5] [µM]	EC90 [5] [µM]	Compound	IC50 [1] [µM]	IC90 [1] [µM]
0.013	0.0797	0.103	0.3	0.82	C/C=C/C[C@@H](C)[C@@H](O)[C@H]1C(=O)N[C@@H](CC)C(=O)N(C)CC(=O)N(C)[C@@H](CC(C)C)C(=O)N[C@@H](C(C)C)C(=O)N(C)[C@@H](CC(C)C)C(=O)N[C@@H](C)C(=O)N[C@H](CN)C(=O)N(C)[C@@H](CC(C)C)C(=O)N(C)[C@@H](CC(C)C)C(=O)N(C)[C@@H](C(C)C)C(=O)N1C	4.61	> 10
0.012	0.0242	0.023	0.1	0.27	C/C=C/C[C@@H](C)[C@@H](O)[C@H]1C(=O)N[C@@H](CC)C(=O)N(C)CC(=O)N(C)[C@@H](CC(C)C)C(=O)N[C@@H](C(C)C)C(=O)N(C)[C@@H](CC(C)C)C(=O)N[C@@H](C)C(=O)N[C@H](CCC#N)C(=O)N(C)[C@@H](CC(C)C)C(=O)N(C)[C@@H](CC(C)C)C(=O)N(C)[C@@H](C(C)C)C(=O)N1C	2.37	> 10
0.0051	0.00945	0.00912	0.04	0.14	C/C=C/C[C@@H](C)[C@@H](O)[C@H]1C(=O)N[C@@H](CC)C(=O)N(C)CC(=O)N(C)[C@@H](CC(C)C)C(=O)N[C@@H](C(C)C)C(=O)N(C)[C@@H](CC(C)C)C(=O)N[C@@H](C)C(=O)N[C@H](CC#N)C(=O)N(C)[C@@H](CC(C)C)C(=O)N(C)[C@@H](CC(C)C)C(=O)N(C)[C@@H](C(C)C)C(=O)N1C	2.82	> 10
